Holding throughout (type): biochemical
One assay deals with CDK4/CCND3 (Homo sapiens, UniProt P11802). Nature of the assay: CDK4 homogeneous time-resolved fluorescence (HTRF) kinase assay. The conditions noted are these: CDK4/CCND. The procedure:
(§1) A CDK homogeneous time-resolved fluorescence (HTRF) assay was used to assess the potency of the compounds described herein.
(§2) To an untreated 384-well microtiter plate (ProxiPlate) was added 100 nL 100×test compound in DMSO and 5 μL 2×CDK enzyme in assay buffer (50 mM HEPES, 1 mM EGTA, 10 mM MgCl2, 0.01% Tween 20, 2 mM DTT). The plate was centrifuged at 800 RPM for 1 min then incubated for 20 min at 23 °C. 2.5 μL per well of 4×ATP and 2.5 μL 4×ULight™-eIF4E-binding protein 1 (Thr37/46) Peptide substrate were added to all wells. After addition, the plates were centrifuged at 800 RPM for 1 min. The plates were incubated at 23 °C for 60 min. 5 μL per well 4×EDTA solution were added to each well to stop the reaction. 5 μL 4×LANCE Ultra Europium-anti-phospho-eIF4E-binding protein 1 (Thr37/46) antibody were added to each well and the plate was centrifuged for 1 min at 800 RPM. The plate was incubated for 60 min at 23 °C. Fluorescence was read at 340 nm excitation and 665 nm emission on an EnVision 2105 fluorescence reader. The final concentrations of reagents in the activity assay were 1.5 nM CDK4/CCND3, 1 mM ATP, 50 nM ULight™-eIF4E-binding protein 1 (Thr37/46) Peptide substrate, 1% DMSO, 10 mM EDTA, and 2 nM LANCE Ultra Europium-anti-phospho-eIF4E-binding protein 1 (Thr37/46).
(§3) Dose-response titrations were conducted by using an 11-point, half-logarithmic serial dilution scheme typically starting at 10 μM. Signals were reported as fluorescence units at 665 nm or the ratio of fluorescence units at 665 nm/fluorescence units at 615 nm. Signals are referred to below as “Lance signals”.
(§4) Using this assay, the IC50 values of example compounds were determined. Table 3 illustrates the IC50 for various Example compounds of Formula IA. Table 4 illustrates the IC50 for various other Example compounds of Formula I. ND=not determined.
Background: Time-resolved FRET reads energy transfer from a long-lived donor to a nearby acceptor.

The target of the next assay is CDK1/CCNB1 (Homo sapiens, UniProt P06493). Nature of the assay: CDK1 homogeneous time-resolved fluorescence (HTRF) kinase assay. The conditions noted are these: CDK1/CCNB. The gist of the method:
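Read-out: TR-FRET (Eu anti-phospho-4E-BP1 Thr37/46 antibody, 2 nM; 665 nm or 665/615 ratio) after 60 min phosphorylation of 50 nM ULight-peptide by 0.5 nM CDK1/CCNB1 at 1 mM ATP, 23 °C. Compound preincubated 20 min with enzyme; 1% DMSO.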

Another assay addresses CDK2/CCNE1 (Homo sapiens, UniProt P24941). Description: CDK2 homogeneous time-resolved fluorescence (HTRF) kinase assay. The conditions noted are these: CDK2/CCNE. The gist of the method:
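An HTRF format measures CDK2/CCNE1 (3 nM) phosphorylating a 4E-BP1 Thr37/46 peptide at high (1 mM) ATP. Reactions run one hour at 23 °C, then EDTA-quenched and probed with Eu-labelled phospho-specific antibody.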

For another assay, the target named is CDK6/CCND1 (Homo sapiens, UniProt Q00534). Description: CDK6 homogeneous time-resolved fluorescence (HTRF) kinase assay. The conditions noted are these: CDK6/CCND. The method, then:
as §1
as §2, with “1” for “1.5”, “CDK6/CCND1,” for “CDK4/CCND3,”
as §3, §4

Where [1] appears, read: 25-250 nM marked x, read-out: CDK4/CCND IC50 25-250 nM.
The mark [2] stands for this setting: >250 nM marked x, read-out: CDK1/CCNB IC50 >250 nM.
The mark [3] stands for this setting: <25 nM, read-out: CDK2/CCNE IC50 <25 nM.
[4] abbreviates: 25-250 nM marked x, read-out: CDK6/CCND IC50 25-250 nM.
Setting [5] is: <25 nM, read-out: CDK4/CCND IC50 <25 nM.
The mark [6] stands for this setting: 25-250 nM marked x, read-out: CDK1/CCNB IC50 25-250 nM.
[7] abbreviates: <25 nM, read-out: CDK6/CCND IC50 <25 nM.
Setting [8] is: x = IC50 >250 nM, read-out: CDK4/CCND IC50 (>250 nM column).
[9] abbreviates: x = IC50 >250 nM, read-out: CDK6/CCND IC50 (>250 nM column).

Molecules are shown by their SMILES. Read-outs that look alike come from different tables or passages of the source. Some results are limits rather than exact numbers.

CDK4/CCND3, sequence (P11802 whole entry): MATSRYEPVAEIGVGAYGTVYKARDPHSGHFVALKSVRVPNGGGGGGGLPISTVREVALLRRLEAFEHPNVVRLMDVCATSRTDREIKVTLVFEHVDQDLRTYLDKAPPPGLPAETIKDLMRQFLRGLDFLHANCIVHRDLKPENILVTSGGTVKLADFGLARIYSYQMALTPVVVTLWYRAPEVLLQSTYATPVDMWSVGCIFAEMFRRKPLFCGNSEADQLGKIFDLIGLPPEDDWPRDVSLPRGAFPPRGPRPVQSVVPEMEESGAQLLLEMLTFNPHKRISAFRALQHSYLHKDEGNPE
CDK4/CCND3, sequence (P30281 whole entry partner): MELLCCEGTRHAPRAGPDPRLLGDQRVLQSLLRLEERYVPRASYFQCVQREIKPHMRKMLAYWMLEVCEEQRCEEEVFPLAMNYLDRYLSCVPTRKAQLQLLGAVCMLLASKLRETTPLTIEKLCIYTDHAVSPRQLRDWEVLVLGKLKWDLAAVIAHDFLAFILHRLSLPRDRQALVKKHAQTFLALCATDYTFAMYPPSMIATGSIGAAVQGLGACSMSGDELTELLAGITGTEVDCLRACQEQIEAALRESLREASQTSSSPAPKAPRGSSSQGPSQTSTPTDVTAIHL
CDK6/CCND1, sequence (Q00534 whole entry): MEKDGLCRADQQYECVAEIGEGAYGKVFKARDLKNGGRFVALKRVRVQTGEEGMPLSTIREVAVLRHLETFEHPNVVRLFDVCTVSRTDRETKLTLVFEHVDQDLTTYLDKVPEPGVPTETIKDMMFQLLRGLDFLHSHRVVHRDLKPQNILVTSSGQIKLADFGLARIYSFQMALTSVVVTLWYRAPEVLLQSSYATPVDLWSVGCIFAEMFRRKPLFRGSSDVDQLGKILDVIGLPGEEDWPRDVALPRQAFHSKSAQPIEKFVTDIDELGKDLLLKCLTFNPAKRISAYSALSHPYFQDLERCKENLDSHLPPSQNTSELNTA
CDK6/CCND1, sequence (P24385 whole entry partner): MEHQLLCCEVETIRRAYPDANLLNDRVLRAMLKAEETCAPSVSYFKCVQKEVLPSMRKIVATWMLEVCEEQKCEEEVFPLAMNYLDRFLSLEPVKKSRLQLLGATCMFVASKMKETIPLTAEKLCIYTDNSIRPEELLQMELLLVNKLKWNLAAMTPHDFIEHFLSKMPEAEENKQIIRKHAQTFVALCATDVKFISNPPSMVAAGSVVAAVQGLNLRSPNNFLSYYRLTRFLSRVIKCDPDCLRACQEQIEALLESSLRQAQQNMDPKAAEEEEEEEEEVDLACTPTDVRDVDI
CDK1/CCNB1, sequence (P06493 whole entry): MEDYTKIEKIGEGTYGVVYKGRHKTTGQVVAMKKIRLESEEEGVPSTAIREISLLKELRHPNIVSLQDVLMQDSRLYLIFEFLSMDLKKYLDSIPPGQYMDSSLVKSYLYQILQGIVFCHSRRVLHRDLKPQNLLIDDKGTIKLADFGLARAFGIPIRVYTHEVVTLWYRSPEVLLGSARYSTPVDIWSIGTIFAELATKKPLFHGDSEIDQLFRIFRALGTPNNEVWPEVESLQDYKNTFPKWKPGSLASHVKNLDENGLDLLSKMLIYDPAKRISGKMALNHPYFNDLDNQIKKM
CDK1/CCNB1, sequence (P14635 whole entry partner): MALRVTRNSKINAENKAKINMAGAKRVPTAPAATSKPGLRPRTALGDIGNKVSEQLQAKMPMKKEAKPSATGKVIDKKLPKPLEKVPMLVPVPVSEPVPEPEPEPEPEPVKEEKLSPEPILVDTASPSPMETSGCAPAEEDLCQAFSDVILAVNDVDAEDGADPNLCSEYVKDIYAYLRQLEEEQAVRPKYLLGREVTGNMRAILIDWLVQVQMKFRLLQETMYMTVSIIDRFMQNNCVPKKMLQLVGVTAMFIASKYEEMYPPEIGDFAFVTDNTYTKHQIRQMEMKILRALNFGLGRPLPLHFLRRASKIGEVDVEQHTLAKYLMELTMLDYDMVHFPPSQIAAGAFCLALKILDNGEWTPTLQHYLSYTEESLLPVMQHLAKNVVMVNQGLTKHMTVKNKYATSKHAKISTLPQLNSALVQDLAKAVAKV

Turning to `CS(=O)(=O)N1CCC(Nc2cc3c(N4CCC(O)C4)nccc3cn2)CC1` (racemic) [Ex 26, 1-(7-((1-(methylsulfonyl)piperidin-4-yl)amino)-2,6-naphthyridin-1-yl)pyrrolidin-3-ol], the IC50 was 25 to 250 nM at CDK4/CCND3 (setting [1]), above 250 nM at CDK1/CCNB1 (setting [2]), below 25 nM at CDK2/CCNE1 (setting [3]) and 25 to 250 nM at CDK6/CCND1 (setting [4]).

Regarding `CC1CCCCN1c1nccc2cnc(NC3CCN(S(C)(=O)=O)CC3)cc12` (racemic) [Ex 34, 5-(2-methylpiperidin-1-yl)-N-(1-(methylsulfonyl)piperidin-4-yl)-2,6-naphthyridin-3-amine], the IC50 on CDK4/CCND3 (setting [5]) was below 25 nM; at CDK1/CCNB1 (setting [6]), 25 to 250 nM; at CDK2/CCNE1 (setting [3]), below 25 nM; on CDK6/CCND1 (setting [7]) it was below 25 nM.

For the molecule `CS(=O)(=O)N1CCC(Nc2cc3c(N4CCCC(C#N)C4)nccc3cn2)CC1` (racemic) [Ex 39, 1-(7-((1-(methylsulfonyl)piperidin-4-yl)amino)-2,6-naphthyridin-1-yl)piperidine-3-carbonitrile], the IC50 is 25 to 250 nM on CDK4/CCND3 (setting [1]), 25 to 250 nM at CDK1/CCNB1 (setting [6]), below 25 nM on CDK2/CCNE1 (setting [3]) and below 25 nM at CDK6/CCND1 (setting [7]).

Consider `CCS(=N)(=O)c1ccc(Nc2cc3c(C#Cc4ccc5c(c4)NC(=O)C54CC4)nccc3cn2)cc1` (racemic) [Ex 376, 6'-((7-((4-(ethylsulfonimidoyl)phenyl)amino)-2,6-naphthyridin-1-yl)ethynyl)spiro[cyclopropane-1,3'-indolin]-2'-one], for which the IC50 on CDK4/CCND3 (x = IC50 25-250 nM, read-out: CDK4/CCND IC50 (25-250 nM)) was in the range of 25 to 250 nM; at CDK1/CCNB1 (x = IC50 25-250 nM, read-out: CDK1/CCNB IC50 (25-250 nM)), 25 to 250 nM; on CDK6/CCND1 (x = IC50 25-250 nM, read-out: CDK6/CCND IC50 (25-250 nM)), 25 to 250 nM.

Regarding `CNC(=O)C1CCCN(c2nccc3cnc(NC4CCN(S(C)(=O)=O)CC4)cc23)C1` (single isomer, unassigned) [Ex 33, N-methyl-1-(7-((1-(methylsulfonyl)piperidin-4-yl)amino)-2,6-naphthyridin-1-yl)piperidine-3-carboxamide], the values for the IC50 on CDK4/CCND3 (setting [5]), at CDK1/CCNB1 (setting [2]) and at CDK6/CCND1 (setting [4]) were below 25 nM, above 250 nM and 25 to 250 nM, respectively.

Consider `CS(=O)(=O)N1CCC(Nc2cc3c(N4CCC(C#N)C4)nccc3cn2)CC1` (single isomer, unassigned) [Ex 261, 1-(7-((1-(methylsulfonyl)piperidin-4-yl)amino)-2,6-naphthyridin-1-yl)pyrrolidine-3-carbonitrile], for which the IC50 on CDK4/CCND3 (setting [1]) is 25 to 250 nM; at CDK1/CCNB1 (setting [2]), above 250 nM; on CDK6/CCND1 (setting [4]) it was 25 to 250 nM.

Regarding `CCS(=N)(=O)c1ccc(Nc2cc3c(C#Cc4ccc5c(c4)NC(=O)C54CC4)nccc3cn2)c(OC)c1` (single isomer, unassigned) [Ex 290, 6'-((7-((4-(ethylsulfonimidoyl)-2-methoxyphenyl)amino)-2,6-naphthyridin-1-yl)ethynyl)spiro[cyclopropane-1,3'-indolin]-2'-one], the IC50 on CDK4/CCND3 (setting [1]), on CDK1/CCNB1 (setting [6]) and at CDK6/CCND1 (setting [4]) was 25 to 250 nM in each case.

Turning to `CC(C)S(=N)(=O)c1ccc(Nc2cc3c(C#Cc4ccc5c(c4)NC(=O)C5(C)CO)nccc3cn2)cc1` (single isomer, unassigned) [Ex 329, 3-(hydroxymethyl)-3-methyl-6-((7-((4-(propan-2-ylsulfonimidoyl)phenyl)amino)-2,6-naphthyridin-1-yl)ethynyl)indolin-2-one], the IC50 was below 25 nM on CDK4/CCND3 (setting [5]) and 25 to 250 nM at CDK6/CCND1 (setting [4]).

Regarding `CC(C)S(=N)(=O)c1ccc(Nc2cc3c(C#Cc4ccc5c(c4)NC(=O)C54CCC4)nccc3cn2)cc1` (single isomer, unassigned) [Ex 384, 6'-((7-((4-(propan-2-ylsulfonimidoyl)phenyl)amino)-2,6-naphthyridin-1-yl)ethynyl)spiro[cyclobutane-1,3'-indolin]-2'-one], the IC50 at CDK4/CCND3 (setting [8]) and at CDK6/CCND1 (setting [9]) was above 250 nM throughout.

Consider `CS(=O)(=O)N1CCC(Nc2cc3c(-c4ccc(C#N)nc4)nccc3cn2)CC1` [Ex 61, 5-(7-((1-(methylsulfonyl)piperidin-4-yl)amino)-2,6-naphthyridin-1-yl)picolinonitrile], for which the IC50 on CDK4/CCND3 (setting [1]) was 25 to 250 nM; at CDK1/CCNB1 (setting [2]), above 250 nM; at CDK6/CCND1 (setting [4]), 25 to 250 nM.

As to `CS(=O)(=O)N1CCC(Nc2cc3c(-c4ccc(N5CCOCC5)cc4)nccc3cn2)CC1` [Ex 65, N-(1-(methylsulfonyl)piperidin-4-yl)-5-(4-morpholinophenyl)-2,6-naphthyridin-3-amine], the IC50 was in the range of 25 to 250 nM on CDK4/CCND3 (setting [1]); 25 to 250 nM at CDK2/CCNE1 (25-250 nM marked x, read-out: CDK2/CCNE IC50 25-250 nM); 25 to 250 nM at CDK6/CCND1 (setting [4]).

Take `CCC1(CC)C(=O)Nc2cc(C#Cc3nccc4cnc(Nc5ccc(S(=O)(=O)C6CC6)cc5)cc34)ccc21` [Ex 408, 6-((7-((4-(cyclopropylsulfonyl)phenyl)amino)-2,6-naphthyridin-1-yl)ethynyl)-3,3-diethylindolin-2-one]: the IC50 was above 250 nM at CDK4/CCND3 (setting [8]); above 250 nM on CDK1/CCNB1 (x = IC50 >250 nM, read-out: CDK1/CCNB IC50 (>250 nM column)); above 250 nM on CDK6/CCND1 (setting [9]).

Regarding `CC1(C)C(=O)Nc2cc(C#Cc3nccc4cnc(Nc5ccc(S(C)(=O)=O)cc5F)cc34)ccc21` [Ex 438, 6-((7-((2-fluoro-4-(methylsulfonyl)phenyl)amino)-2,6-naphthyridin-1-yl)ethynyl)-3,3-dimethylindolin-2-one], the IC50 on CDK4/CCND3 (setting [8]) is above 250 nM; at CDK2/CCNE1 (x = IC50 <25 nM, read-out: CDK2/CCNE IC50 (<25 nM)) it was below 25 nM; at CDK6/CCND1 (setting [9]), above 250 nM.

On to `CC(=O)NCCn1cc2c(C)c(-c3nccc4cnc(Nc5ccc(S(C)(=O)=O)cc5)cc34)ccc2n1` [Ex 632, N-(2-(4-methyl-5-(7-((4-(methylsulfonyl)phenyl)amino)-2,6-naphthyridin-1-yl)-2H-indazol-2-yl)ethyl)acetamide], for which the IC50 is above 250 nM at CDK4/CCND3 (setting [8]); 25 to 250 nM at CDK2/CCNE1 (x = IC50 25-250 nM, read-out: CDK2/CCNE IC50 (25-250 nM)); above 250 nM at CDK6/CCND1 (setting [9]).
